{"source": "patent US20070185093A1", "about": "“Benzotriazepine derivatives and their use as gastrin and cholecystokinin receptor ligands” (priority 2003, published 2007)", "target": "T1, human gastrin (CCK2) receptors (Homo sapiens, UniProt P32239)", "T1 construct": "amplified by PCR (polymerase chain reaction) from the start codon to the stop codon; expressed in transfected cells", "T1 sequence (P32239 1-447)": "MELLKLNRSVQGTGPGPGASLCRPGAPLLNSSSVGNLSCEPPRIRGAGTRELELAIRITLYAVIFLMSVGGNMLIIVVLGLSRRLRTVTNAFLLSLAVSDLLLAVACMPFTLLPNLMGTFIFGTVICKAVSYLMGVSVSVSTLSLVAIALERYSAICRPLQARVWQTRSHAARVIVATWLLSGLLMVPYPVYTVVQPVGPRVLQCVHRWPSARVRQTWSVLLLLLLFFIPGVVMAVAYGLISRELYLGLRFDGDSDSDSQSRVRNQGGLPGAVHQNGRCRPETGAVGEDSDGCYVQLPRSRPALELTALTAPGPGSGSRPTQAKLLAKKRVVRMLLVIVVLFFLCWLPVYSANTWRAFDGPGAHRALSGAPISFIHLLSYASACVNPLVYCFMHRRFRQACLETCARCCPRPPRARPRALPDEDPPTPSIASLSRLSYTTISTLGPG", "test": "Displacement of [125I]-BH-CCK-8S from human CCK2 receptors cloned into NIH3T3 cells (membranes)", "assay_type": "binding", "conditions": "hCCK2 receptor, NIH3T3 clone 7 membranes, [125I]-BH-CCK-8S 200 pM, 150 min at 21° C.; ± s.e. mean; read-out: CCK2 (pKI) (converted)", "method": "A number of compounds were tested at human gastrin (CCK2) receptors which have been cloned into an NIH3T3 cell line as follows:\nStable clones expressing hCCK2R were screened for their ability to specifically bind [^125I]-BH-CCK-8S in tissue concentration curve studies (0.3×10^4-1×10^6 cells per tube) using the assay conditions described below. […] In addition there was a direct linear correlation between the amount of specific bound label and the cell concentration up to and including 2.5×10^5 cells per ml. Based on the above, this clone was chosen for expansion and fall binding characterisation.\nCultured clone 7 cells were stored as frozen pellets at −70° C. until required. Cell pellets were thawed in CCK2 assay buffer ((mM): 10 Hepes; 130 NaCl; 5 MgCl2; 4.7 KCl; 1 EGTA (pH7.2 at 21° C.) with 0.125 g Bacitracin added to each litre), and homogenised using a Polytron (4×1 s). The resulting membrane preparation was centrifuged at 39,800 g for 15 min at 4° C. Each cell pellet was re-suspended in fresh buffer and re-centriflged as above. The final pellet was re-suspended by homogenisation (Teflon-in-glass), to the appropriate membrane concentration.\nFor saturation and competition studies, the cell membranes prepared as in step d (3×10^4 cells per 400 μl) were incubated for 150 min at 21° C. in a final volume of 0.5 ml with CCK2 assay buffer containing [^125I]-BH-CCK-8S (50 μl; 200 pM). Total and non-specific binding of [^125I]-BH-CCK-8S were defined, respectively using 50 μl of buffer and 50 μl of 10 μM YM022. The assays were terminated by rapid filtration through pre-soaked Whatman GF/B filters which were washed (3×3 ml) with ice-cold 50 mM Tris HCl (pH7.4 @ 4° C.). Filters were transferred to plastic gamma counter vials and bound radioactivity determined by counting (1 min) in a Clini-gamma counter.\nThe binding of [^125I]-BH-CCK-8S to the hCCK2 receptor isoform was saturable. […] Saturation data were analysed using the curve-fitting programmes, Radlig and Ligand.\nA number of compounds of the invention as well as reference compounds were tested for their ability to displace [^125I]-BH-CCK-8S from the receptors prepared as above. Briefly, dilution and addition of test compounds, radioligand and cell membranes were performed using a Beckman Biomek 2000. The ability of compounds to inhibit the specific binding of to hCCK2 receptors was determined in triplicate over a range of concentrations at half-log intervals. Total and non-specific binding was determined for each compound. Each compound was tested in a minimum of three experiments. Competition data were fitted to the Hill equation using Graph-pad Prism software to obtain estimates of the IC50 (mid-point location parameter) and nH (mid-point slope parameter). Dissociation constants (KI) were determined using the Cheng & Prusoff equation (1973) to correct for the receptor occupancy by the radioligand. All compounds were dissolved in DMF to give a stock concentration of either 1 or 10 mM and subsequent dilutions were made in assay buffer.", "data": [{"smiles": "CC(C)(C)C(=O)CN1C(=O)N(CC(=O)Nc2cccc(C(=O)O)c2)NC(C2CCCCC2)c2ccccc21", "note": "(racemic) [Example 1, (+/−)-3-{2-[5-Cyclohexyl-1-(3,3-dimethyl-2-oxo-butyl)-2-oxo-1,2,4,5-tetrahydro-3H-1,3,4-benzotriazepin-3-yl]-acetylamino)-benzoic acid]", "values": [{"measurement": "Ki", "result": 17.8, "unit": "nM"}]}, {"smiles": "CNc1cccc(NC(=O)CN2NC(C3CCCCC3)c3ccccc3N(CC(=O)C(C)(C)C)C2=O)c1", "note": "(racemic) [Example 2, (+/−)-2-[5-Cyclohexyl-1-(3,3-dimethyl-2-oxo-butyl)-2-oxo-1,2,4,5-tetrahydro-3H-1,3,4-benzotriazepin-3-yl]-N-(3-methylamino-phenyl)-acetamide]", "values": [{"measurement": "Ki", "result": 16.2, "unit": "nM"}]}, {"smiles": "Cc1cccc(NC(=O)CN2NC(C3CCCCC3)c3ccccc3N(CC(=O)C(C)(C)C)C2=O)c1", "note": "(racemic) [Example 3, (+/−)-2-[5-Cyclohexyl-1-(3,3-dimethyl-2-oxo-butyl)-2-oxo-1,2,4,5-tetrahydro-3H-3H-1,3,4-benzotriazepin-3-yl]-N-m-tolyl-acetamide]", "values": [{"measurement": "Ki", "result": 44.7, "unit": "nM"}]}, {"smiles": "O=C(CN1NC(C2CCCCC2)c2ccccc2N(CC(=O)C2CCCC2)C1=O)Nc1cccc(C(=O)O)c1", "note": "(racemic) [Example 4, (+/−)-3-{2-[5-Cyclohexyl-1-(2-cyclopentyl-2-oxo-ethyl)-2-oxo-1,2,4,5-tetrahydro-3H-1,3,4-benzotriazepin-3-yl]-acetylamino}-benzoic acid]", "values": [{"measurement": "Ki", "result": 1.48, "unit": "nM"}]}, {"smiles": "O=C(O)Cc1cccc(NC(=O)CN2NC(C3CCCCC3)c3ccccc3N(CC(=O)C3CCCC3)C2=O)c1", "note": "(racemic) [Example 5, (+/−)-(3-{2-[5-Cyclohexyl-1-(2-cyclopentyl-2-oxo-ethyl)-2-oxo-1,2,4,5-tetrahydro-3H-1,3,4-benzotriazepin-3-yl]-acetylamino}-phenyl)-acetic acid]", "values": [{"measurement": "Ki", "result": 79.4, "unit": "nM"}]}, {"smiles": "O=C(O)CCc1cccc(NC(=O)CN2NC(C3CCCCC3)c3ccccc3N(CC(=O)C3CCCC3)C2=O)c1", "note": "(racemic) [Example 6, (+/−)-3-(3-(2-[5-Cyclohexyl-1-(2-cyclopenlyl-2-oxo-ethyl)-2-oxo-1,2,4,5tetrahydro-3H-1,3,4-benzotriazepin-3-yl]-acetylamino}-phenyl)-propionic acid]", "values": [{"measurement": "Ki", "result": 0.759, "unit": "nM"}]}, {"smiles": "CNc1cccc(NC(=O)CN2NC(C3CCCCC3)c3ccccc3N(CC(=O)C3CCCC3)C2=O)c1", "note": "(racemic) [Example 7, (+/−)-2-[5-Cyclohexyl-1-(2-cyclopentyl-2-oxo-ethyl)-2-oxo-1,2,4,5-tetrahydro-3H-1,3,4-benzotriazepin-3-yl]-N-(3-methylamino-phenyl)-acetamide]", "values": [{"measurement": "Ki", "result": 2.63, "unit": "nM"}]}, {"smiles": "CC1(C(=O)CN2C(=O)N(CC(=O)Nc3cccc(C(=O)O)c3)NC(C3CCCCC3)c3ccccc32)CCCCC1", "note": "(racemic) [Example 8, (+/−)-3-(2-{5-Cyclohexyl-1-[2-(1-methyl-cyclohexyl)-2-oxo-ethyl]-2-oxo-1,2,4,5-tetrahydro-3H-1,3,4-benzotriazepin-3-yl}-acetylamino)-benizoic acid]", "values": [{"measurement": "Ki", "result": 7.76, "unit": "nM"}]}, {"smiles": "O=C(CN1NC(C2CCCCC2)c2ccccc2N(CC(=O)C2CCCCC2)C1=O)Nc1cccc(C(=O)O)c1", "note": "(racemic) [Example 9, (+/−)-3-{2-[5-Cyclohexyl-1-(2-cyclohexyl-2-oxo-ethyl)-2-oxo-1,2,4,5-tetrahydro-3H-1,3,4-benzotriazepin-3-yl]-acetylamino}-benzoic acid]", "values": [{"measurement": "Ki", "result": 2.24, "unit": "nM"}]}, {"smiles": "O=C(O)Cc1cccc(NC(=O)CN2NC(C3CCCCC3)c3ccccc3N(CC(=O)C3CCCCC3)C2=O)c1", "note": "(racemic) [Example 10, (+/−)-(3-{2-[5-Cyclohexyl-1-(2-cyclohexyl-2-oxo-ethyl)-2-oxo-1,2,4,5-tetrahydro-3H-1,3,4-benzotriazepin-3-yl]-acetylamino}-phenyl)-acetic acid]", "values": [{"measurement": "Ki", "result": 0.363, "unit": "nM"}]}, {"smiles": "O=C(CN1NC(C2CCCCC2)c2ccccc2N(CC(=O)C2CCCC2)C1=O)Nc1cccc(-c2nnn[nH]2)c1", "note": "(racemic) [Example 15, (+/−)2-[5-Cyclohexyl-1-(2-cyclopentyl-2-oxo-ethyl)-2-oxo-1,2,4,5-tetrahydro-3H-1,3,4-benzotriazepin-3-yl]-N-[3-(2H-tetrazol-5-yl)-phenyl]-acetamide]", "values": [{"measurement": "Ki", "result": 0.501, "unit": "nM"}]}, {"smiles": "O=C(CN1NC(C2CCCCC2)c2ccccc2N(CC(=O)C2CCCC2)C1=O)Nc1cccc(-c2nc(=O)o[nH]2)c1", "note": "(racemic) [Example 16, (+/−)-2-[5-Cyclohexyl-1-(2-cyclopentyl-2-oxo-ethyl)-2-oxo-1,2,4,5-tetrahydro-3H-1,3,4-benzotriazepin-3-yl]-N-[3-(5-oxo-2,5-dihydro-[1,2,4]oxadiazol-3-yl)-phenyl]-acetamide]", "values": [{"measurement": "Ki", "result": 0.0794, "unit": "nM"}]}, {"smiles": "O=C(CN1NC(C2CCCCC2)c2ccccc2N(CC(=O)C2CCCC2)C1=O)Nc1cccc(C(=O)O)c1", "note": "(single isomer, unassigned; (+)) [Example 11, (+)-3-{2-[5-Cyclohexyl-1-(2-cyclopentyl-2-oxo-ethyl)-2-oxo-1,2,4,5-tetrahydro-3H-1,3,4-benzotriazepin-3-yl]-acetylamino}-benzoic acid]", "values": [{"measurement": "Ki", "result": 12.6, "unit": "nM"}]}, {"smiles": "O=C(O)Cc1cccc(NC(=O)CN2NC(C3CCCCC3)c3ccccc3N(CC(=O)C3CCCCC3)C2=O)c1", "note": "(single isomer, unassigned; (+)) [Example 13, (+)-(3-{2-[5-Cyclohexyl-1-(2-cyclohexyl-2-oxo-ethyl)-2-oxo-1,2,4,5-tetrahydro-3H-1,3,4-benzotriazepin-3-yl]-acetylamino}-phenyl)-acetic acid]", "values": [{"measurement": "Ki", "result": 3.98, "unit": "nM"}]}, {"smiles": "O=C(CN1NC(C2CCCCC2)c2ccccc2N(CC(=O)C2CCCC2)C1=O)Nc1cccc(C(=O)O)c1", "note": "(single isomer, unassigned; (-)) [Example 12, (−)-3-{2-[5-Cyclohexyl-1-(2-cyclopentyl-2-oxo-ethyl)-2-oxo-1,2,4,5-tetrahydro-3H-1,3,4-benzotriazepin-3-yl]-acetylamino}-benzoic acid]", "values": [{"measurement": "Ki", "result": 1.58, "unit": "nM"}]}, {"smiles": "O=C(O)Cc1cccc(NC(=O)CN2NC(C3CCCCC3)c3ccccc3N(CC(=O)C3CCCCC3)C2=O)c1", "note": "(single isomer, unassigned; (-)) [Example 14, (−)-(3-{2-[5-Cyclohexyl-1-(2-cyclohexyl-2-oxo-ethyl)-2-oxo-1,2,4,5-tetrahydro-3H-1,3,4-benzotriazepin-3-yl]-acetylamino}-phenyl)-acetic acid]", "values": [{"measurement": "Ki", "result": 0.1, "unit": "nM"}]}]}
